Measured values reported in PubChem BioAssay AID2823 (Broad Institute, 2010).
Activity calls are given as the source filed them. No rule for the calls is given here.

target: RanGTP-importin-beta complex (human Ran / KPNB1); assay: Ran–importin-beta interaction inhibitors, confirmation, biochemical, FRET, CFP/YFP, cell-free homogeneous (AID 2823); details: CFP-Ran/YFP-importin-beta FRET ratio

SMILES | IC50
NS(=O)(=O)c1ccc(CCNC(=O)C2CCN(S(=O)(=O)c3ccc(Br)s3)CC2)cc1 | > 50 µM (inactive)
Cc1cc2c(c(=O)n1Cc1cccnc1)C(Cc1ccccc1)C(C#N)=C(N)O2 (stereo unspecified) | > 50 µM (inactive)
COc1cc2c(cc1OC)CN(Cc1cc(=O)oc3c(C)c(C)ccc13)CC2 | > 50 µM (inactive)
COc1ccc(CCNc2nc3ccccc3n3nnnc23)cc1OC | 40.1 µM
Cc1ccc(N2CC(=O)N(NC(=O)c3sc4nc(C)cc(C)c4c3N)CC2=O)cc1 | > 50 µM (inactive)
Cn1c(=O)oc2cc(S(=O)(=O)NCCC(=O)N3CC=C(c4ccccc4)CC3)ccc21 | > 50 µM (inactive)
Cc1ccc(OCC(=O)c2cc(C)n(CC(F)(F)F)c2C)c([N+](=O)[O-])n1 | > 50 µM (inactive)
COCCCn1c(=N)c(C(=O)NCc2ccc3c(c2)OCO3)cc2c(=O)n3ccccc3nc21 | 28.4 µM
CC(C)c1ccccc1NC(=O)C1C2C=CC(C2)C1C(=O)O (stereo unspecified) | > 50 µM (inactive)
CN(C)CCCn1c(N)c(C#N)c2nc(C#N)c(C#N)nc21 | 21.9 µM
COc1cccc(-c2cc(C(=O)NC3CC3)c3ccccc3n2)c1 | > 50 µM (inactive)
Cc1cccc(C(=O)Nc2sc(C)c(-c3ccccc3)c2C#N)c1 | > 50 µM (inactive)
COC(=O)C1=C(C)NC(C)=C(C(=O)OC)C1C(=O)OC(C)C(=O)c1ccccc1 (stereo unspecified) | > 50 µM (inactive)
Cc1cc(/C=c2/sc3nc4ccccc4n3c2=O)c(C)n1-c1ccccn1 | > 50 µM (inactive)
Cc1cc(C)c2c(c1)/C(=c1/sc3n(c1=O)CN(c1ccccc1)CN=3)C(=O)N2 | > 50 µM (inactive)
Clc1ccc(/C=C\c2nccc3c2[nH]c2ccccc23)cc1 | > 50 µM (inactive)
O=C(/C=C/c1ccccc1[N+](=O)[O-])N1CCN(c2ccc(F)cc2)CC1 | > 50 µM (inactive)
COC(=O)C1=CN(Cc2ccccc2)C=C(C(=O)OC)C1c1cc(F)ccc1F | 15.9 µM
OCCC1CN(Cc2cccn2-c2cccnc2)CCN1Cc1ccc(F)cc1 (stereo unspecified) | > 50 µM (inactive)
Cc1ccc(S(=O)(=O)N2CCCN(c3nc4cc(C)ccc4cc3C#N)CC2)cc1 | 29.8 µM
Cc1cccc2cc(C#N)c(NCCNC(=O)COc3ccccc3)nc12 | > 50 µM (inactive)
CCC(=O)Nc1ccc(N/C(N)=N/c2nc(C)cc(C)n2)cc1 | > 50 µM (inactive)
CCN1CCN(c2cc(=O)n(Cc3ccc(F)cc3)c(=O)[nH]2)CC1 | > 50 µM (inactive)
NC(=O)c1ccccc1NC(=O)/C=C/c1ccc(Cl)cc1 | > 50 µM (inactive)
CNC(=O)c1cc2c(ccc3ccccc32)oc1=N | 5.26 µM
Oc1c(C=Nc2ccccc2)sc2ccccc12 | 27.6 µM

SMILES | IC50
Clc1ccc(-c2nnc(SCc3nc4ccccc4[nH]3)o2)c(Cl)c1 | > 50 µM (inactive)
Cc1nn(-c2ccccc2)c2sc(C(=O)NC3CCCCC3)cc12 | > 50 µM (inactive)
Cc1noc(C)c1C(=O)Nc1sc2c(c1C(N)=O)CCC2 | > 50 µM (inactive)
Cc1c(CCC(=O)NCCCN2CCCC2=O)c(=O)oc2c(C)c(O)ccc12 | 15.6 µM
COc1ccc(CCNC(=O)c2cc3c(=O)n4ccccc4nc3n(CCCN3CCOCC3)c2=N)cc1 | 17.9 µM
CCN(C(=O)c1c(C)cc(=O)oc1C)c1ccc2c(c1)OCO2 | > 50 µM (inactive)
CC(C)Cc1ccc(CN2CCC(n3nccc3NC(=O)C3CCCC3)CC2)cc1 | > 50 µM (inactive)
COc1ccc(-c2c(N)nnc3c2[nH]c2ccccc23)cc1OC | > 50 µM (inactive)
O=C(O)C1CCCC2CN3CCc4c([nH]c5ccccc45)C3C(O)C21 (stereo unspecified) | > 50 µM (inactive)
Cc1ccc(Nc2nc(N)[nH]c(=O)c2N=O)cc1 | 16.1 µM
COc1ccc(Cn2c(O)c(C=Nc3ccc(OC)cc3)c3ccccc3c2=O)cc1 | > 50 µM (inactive)
CCc1nc(N)c(C#N)c(-c2ccc(F)cc2)c1C | > 50 µM (inactive)
CCN1C2=C(C(=O)CCC2)C(c2ccc(O)c(Br)c2)C2=C1CCCC2=O | 7.86 µM
c1ccc(Nc2nc3ccccc3n3nnnc23)cc1 | 27.7 µM
CC(C)CCN(CCC(C)C)CC(O)Cn1c2ccccc2c(=O)c2ccccc21 (stereo unspecified) | 6.71 µM
O=C(NCc1ccccc1C(F)(F)F)C1CC(c2ccc(C(F)(F)F)cc2)=NO1 (stereo unspecified) | > 50 µM (inactive)
Cc1oc2cc(O)ccc2c(=O)c1-c1nncn1-c1ccccc1 | 32.3 µM
Nc1nc2nc(-c3ccc(OCc4ccccc4)cc3)cc(C(F)(F)F)n2n1 | 4.09 µM
COc1ccc(NC(=O)/C(C#N)=C\c2ccc(N3CCOCC3)o2)cc1 | > 50 µM (inactive)
Cc1ccc(Cn2ccc(NC(=O)c3noc4c3CCc3ccccc3-4)n2)cc1 | > 50 µM (inactive)
CCN(CC)S(=O)(=O)c1ccc(/C=C/C(=O)Nc2ccc(F)cc2F)cc1 | > 50 µM (inactive)
COc1ccccc1C#Cc1ccc2c(=O)c3ccccc3n(C)c2c1 | 0.698 µM
Clc1ccc(/C=C/c2ncc3ccccn23)cc1 | 12.5 µM
CC1CCN(c2nc3ccccc3nc2C(C#N)C(=O)OC2CCCCC2)CC1 (stereo unspecified) | > 50 µM (inactive)
CC(C)S(=O)(=O)c1nsc2nc(=O)c(/C=C3\C=Nc4ccccc43)c(N)n12 | 7.97 µM
CC1(C)CC(=O)C/C(=N\NC(=O)Cc2ccccc2)C1 | > 50 µM (inactive)

SMILES | IC50
COc1ccc2cc(C#N)c(N3CCN(C(=O)c4ccccc4C)CC3)nc2c1 | > 50 µM (inactive)
COCCNC(=O)/C(C#N)=C/c1cn(CC(=O)NCc2ccco2)c2ccccc12 | 40.4 µM
O=[N+]([O-])c1ccc(S(=O)(=O)Nc2nnc(C3CCCCC3)s2)cc1 | > 50 µM (inactive)
CC(=O)c1c(N2CCN(C)CC2)nc(=S)n(-c2cc(C)ccc2C)c1C | > 50 µM (inactive)
Cc1onc(-c2ccccc2)c1C(=O)Nc1cccc2nsnc12 | 33.3 µM
COc1ccc(-c2csc3ncnc(N4CCN(c5ccc(OC)cc5)CC4)c23)cc1 | > 50 µM (inactive)
CC1Cc2cc(S(=O)(=O)NCc3ccccc3)ccc2N1C(=O)C1CC1 (stereo unspecified) | > 50 µM (inactive)
CCCCNC(=O)c1c(N)n(Cc2ccc3c(c2)OCO3)c2nc3ccccc3nc12 | 4.95 µM
CC(C)(C)NC(=O)C(c1ccco1)N(Cc1ccc(F)cc1)C(=O)c1snc(C(N)=O)c1N (stereo unspecified) | > 50 µM (inactive)
COc1ccccc1NC(=O)CN1CCN(CC(=O)Nc2ccc(C)c(F)c2)CC1 | > 50 µM (inactive)
COc1ccc(-c2nc(/C=C3\C(C)=Nc4ccccc43)c(O)o2)cc1 | > 50 µM (inactive)
CCN1C(=S)SC(=O)C1=C1C=C(C)N(Cc2ccco2)C(C)=C1 | 11.1 µM
COc1ccc2cc(C(C)=O)c(=O)oc2c1 | 32.2 µM
CC1(C)CC(=O)C=C(Nc2ccccc2O)C1 | > 50 µM (inactive)
COCC(C)OC(=O)c1c(N)n(CC(C)C)c2nc3ccccc3nc12 (stereo unspecified) | 28.5 µM
COc1ccc(/C=C2\SC(=S)N(CC(=O)OCC(=O)Nc3ccc(C)cc3Cl)C2=O)cc1 | > 50 µM (inactive)
Cc1ccccc1-n1c(=O)cc(N2CC(C)OC(C)C2)[nH]c1=O (stereo unspecified) | > 50 µM (inactive)
CCOC(=O)c1c(NC(=O)CSc2nnc3c(n2)[nH]c2ccccc23)sc2c1CCN(C)C2 | > 50 µM (inactive)
Cc1ccc(N=Cc2cc3c(cc2O)OC(N)=C(C#N)C3c2ccccc2)cc1 (stereo unspecified) | > 50 µM (inactive)
CC(C)NC(=O)C1CC=CCC1C(=O)O (stereo unspecified) | > 50 µM (inactive)
CCN(CC)Cc1c(CC(C)C)oc(C)c1C(=O)O | > 50 µM (inactive)
O=C(CCN1C(=O)COc2ccccc21)N1CCCCC1 | > 50 µM (inactive)
COCCNC(=O)C(C)OC(=O)c1cc2occc2n1C (stereo unspecified) | > 50 µM (inactive)
O=Cc1ccc(N2Cc3ccccc3C2)cc1 | > 50 µM (inactive)
CCOC(=O)N1CCN(/C=C(\C#N)c2nc3ccccc3s2)CC1 | > 50 µM (inactive)
CCOc1ccc(OCc2ccc(C(=O)N(CC)CC)cc2)cc1 | > 50 µM (inactive)

SMILES | IC50
O=C(NNC(=S)NC(=O)c1ccccc1[N+](=O)[O-])c1ccccc1O | > 50 µM (inactive)
O=C(c1cc2ccccc2oc1=O)N1CCN(CCc2ccccc2)CC1 | 6.7 µM
Cc1nc2[nH]c(=O)c3c(n2n1)NC1=C(C(=O)CC(C)(C)C1)C3c1ccccc1 (stereo unspecified) | 3.37 µM
Cc1c(OC(=O)N(C)C)ccc2c1O/C(=C\c1ccco1)C2=O | 12.5 µM
CC(=O)c1ccc(-c2ccc(Cn3c(C)nc4cc(N)c(C)nc43)cc2)cc1 | > 50 µM (inactive)
O=C(NC1=NCCS1)c1cc(-c2cccnc2)nc2ccccc12 | > 50 µM (inactive)
COc1cc(C(=O)NCCNc2nc3cc(C)ccc3cc2C#N)cc(OC)c1OC | 34.6 µM
COC(=O)C1=CN(Cc2cccs2)C=C(C(=O)OC)C1c1ccc(OC)cc1OC | 6.08 µM
Cc1nn(C(=O)c2ccco2)c(C)c1CN1C(=O)c2ccccc2C1=O | > 50 µM (inactive)
C=CCN1CCc2cccc3c2[C@H]1Cc1ccc(O)c(O)c1-3 | > 50 µM (inactive)
CC(=O)O[C@H]1CCC2C3CCC4=CC(=O)CCC4=C3C=C[C@@]21C (stereo partly specified) | > 50 µM (inactive)
N#C/C(=C/c1cn(CC(=O)O)c2ccccc12)C(=O)NCc1ccccc1 | > 50 µM (inactive)
CCS(=O)(=O)c1ccc(S(=O)(=O)CC)s1 | > 50 µM (inactive)
Cc1ccc(-n2c(O)c(/C=N/N3CCCCCC3)c(=O)[nH]c2=O)cc1C | > 50 µM (inactive)
N=c1c(S(=O)(=O)c2ccc(Br)cc2)cc2c(=O)n3ccccc3nc2n1C1CCCCC1 | > 50 µM (inactive)
COc1cccc(-c2coc3c(C)c4oc(=O)c(CC(=O)O)c(C)c4cc23)c1 | > 50 µM (inactive)
N#C/C(=C\c1ccc(O)c(Br)c1)C(=O)NCc1ccccc1 | 25.8 µM
CC1(C)CC(=O)CC(=Nc2ccc3[nH]c(=O)[nH]c3c2)C1 | > 50 µM (inactive)
Cn1cnnc1SCC(=O)c1cc2ccccc2oc1=O | > 50 µM (inactive)
Cc1ccccc1/C=N/Nc1ccnc2cc(Cl)ccc12 | > 50 µM (inactive)
Cc1ccccc1NC(=O)/C(C#N)=C\c1cn(CC(=O)O)c2ccccc12 | 47.6 µM
COCCNC(=O)/C(C#N)=C/c1c(N2CCN(c3ccc(OC)cc3)CC2)nc2c(C)cccn2c1=O | 39.2 µM
C/C(=N\N)c1c(-c2ccccc2)c2cc(Br)ccc2[nH]c1=O | > 50 µM (inactive)
